The record followed here is article PMC8692498, “Synthesis and multifaceted pharmacological activity of novel quinazoline NHE-1 inhibitors” (Scientific Reports, 2021).

Structures are written as SMILES. “Also recorded” adds a separate entry of the source.

For data set [1], the target named is T1, NHE-1 (Oryctolagus cuniculus, UniProt P23791).
T1 construct: endogenous in cells; host or cells: rabbit platelets in platelet-rich plasma (male rabbits)
Briefly: NHE-1 inhibition assay on rabbit platelets (platelet shape change after acidification with sodium propionate, laser aggregometer). In kind it is cell-based. The method, then:
Evaluation of NHE-1 inhibition was carried out on rabbit platelets by the known method[39],[40]. The experiments were carried out on 15 male rabbits weighing 3.0-4.0 kg. Platelet-rich plasma (PRP) was obtained by centrifuging blood with 3.8% sodium citrate (1:10) at 1000 rpm for 12 min (Multi centrifuge CM 6M, Latvia). Platelet shapeshifting due to acidification was followed with a laser aggregometer BIOLA-220 LA (Russia). Test compounds (10 μl, 10 nM final concentration) were added to 200 μl of PRP 5 min in a cuvette before the addition of sodium propionate solution, incubated with constant stirring using a magnetic stirrer (800 rpm, 37 °C). To control samples for NHE-1 activation, a buffer solution containing sodium propionate was added to 200 μL of PRP (600 μL, 135 mM sodium propionate, 20 mM HEPES, 1 mM CaCI2, 1 mM MgCI2, 10 mM glucose; pH 6.7). The change in light transmission at pH 7.4, 37 °C was monitored in a Krebs solution (600 μL, 120 mM NaCl, 4.8 mM KCl, 1.2 mM KH2PO4, 2.5 mM MgSO4, 25 mM NaHCO3, 2.6 mM CaCl2, 5.4 mM glucose; pH 7.4). Test compounds were added to a final concentration of 10 nM to the cuvette into 200 μl of PRP 5 min before adding the sodium propionate solution, incubated with constant stirring using a magnetic stirrer (800 rpm, 37 °C). NHE-1 inhibitors zoniporide, rimeporide, amiloride were used as reference drugs. Assays were run in 6 independent series.

Data set [2] has as its system primary peritoneal macrophages of C57BL/6J mice. The data set is described as follows: Nitric oxide synthesis (nitrite, Griess reagent) in LPS-stimulated peritoneal macrophages. The data set is classed as cell-based. As to conditions: 100 μM. The method, then:
(§1) Peritoneal macrophages (PM) were isolated from the peritoneal exudate of 30 male C57bl/6j mice. To accumulate PM, 1 ml of 3% peptone solution was injected intraperitoneally. After 3 days the mice were euthanized by cervical dislocation. Cells of peritoneal exudate were obtained by aseptically washing the abdominal cavity with 5 ml of sterile Hanks’s solution (+ 4-6 °C) without calcium and magnesium ions. The total number and viability of cells were assessed in a Goryaev counting chamber (Russia) with a 0.4% trypan blue staining (Sigma-Aldrich, USA). The cell concentration was adjusted to 1.0×10^6 cells/ml in DMEM (Gibco) supplemented with 2 mM L-glutamine (Gibco), 10% heat-inactivated fetal bovine serum (BioClot, Germany), 100 U/ml penicillin and […] streptomycin (Gibco) and plated 200 μl/well in 96-well transparent plates (SPL Life Sciences Co., Ltd., Korea). It was left for 2 h at 37°C in a humidified atmosphere with 5% CO2, after which the wells were washed to remove non-adherent cells. After 24 hours of incubation, 20 μl of the supernatant was removed and 20 μl of solutions of test compounds were added 30 min before E. coli O127:B8 LPS (100 ng/ml final concentration). Experiments were run in 3 independent replicates.
The accumulation of nitrite anion (a stable end product of NO decomposition produced by iNOS) in supernatants was determined using a standard Griess reagent. Briefly, 50 μl of supernatants collected 22 hours after incubation of PM with test and control compounds were mixed with 50 μl of 1% sulfonamide in 2.5% H3PO4 and 50 μl of 0.1% N-(1-naphthyl) ethylenediamine in 2,5% H3PO4. After incubation at 23 °C for 10 min in an orbital shaker, the optical density was determined at a wavelength of 550 nm with a microplate reader Infinite M200 PRO (Tecan, Austria).

Data set [3] can be described thus: Cytotoxicity study (LDH activity in the medium) in peritoneal macrophages. The data set is classed as cell-based. Conditions: male, C57BL/6J, mouse, primary peritoneal macrophages; murine peritoneal macrophages, LDH. The method, then: as §1
(§2) The activity of lactate dehydrogenase (LDH) in a cell culture medium served as a marker of membrane permeability and cell death. Aliquotes of supernatants were taken after 24 h of inoculation with test compounds, mixed with 250 μl of […] NADH solution in 54 mM phosphate buffered saline (pH 7.5). Then, 25 μl of a 6.48 mM pyruvate solution was added to the mixture. The optical density was followed at a wavelength of 340 nm for 20 min. Conversion of optical density into cell viability was carried out according to a standard curve (DMSO-treated cells as 100% and 0.01% Triton X-100-treated cells as 0% viable cells).

The subject of data set [4] is primary peritoneal macrophages of C57BL/6J mice. The data set is described as above. In kind it is cell-based. Conditions: 100 μM, peritoneal macrophages. The method, then:
as §1, §2

Another data set deals with intraocular pressure. The data set is described as follows: Intraocular pressure studies in outbred rats (TonoVet). In kind it is in vivo. The protocol:
The experiments were carried out on 75 adult outbred rats of both sexes, which were kept in standard cages at a temperature of 25 °C and a standard light regime. Animals were randomly assigned to the control and experimental groups (n = 5). Before the start of the experiment, the rats had free access to food and water. Intraocular pressure (IOP) was measured with a TonoVet device (Finland)[44] which measures IOP with a short touch of a small disposable tip in the center of the cornea, no corneal anesthesia is required. The study was carried out according to the published method. One drop (50 μl) of a test 0.4% solution of the compound was instilled into the right eye, and deionized water was added to the left eye. IOP was measured in both eyes. The left eye, in turn, serves to assess the possible systemic exposure of the test compounds. […] IOP-lowering activity was assessed as the maximum decrease in IOP from the initial values. At 9:00 AM, baseline IOP was measured in animals of all groups. Experiments were run in 5 independent replicates.

The next data set relates to ICR mice. The data set is described as follows: Tail suspension test (antidepressant activity). The data set is classed as in vivo. Conditions: intragastrically 30 min before test, dose equimolar to 2.6 mg/kg amiloride. The protocol: The experiment was carried out on 36 male ICR mice weighing 22-25 g, divided into groups of 6 animals each under room lighting (300 lux). […] In experiments, test substances were administered intragastrically 30 min before the start of the test. Experimental groups received test compounds in an equimolar dose to the comparison drug amiloride. Animals of the remaining groups were treated with 2.6 mg/kg amiloride, 10 mg/kg amitriptyline, or 8 mg/kg imipramine. Distilled water was administered to the control group. The time of immobilization of the animals was recorded.

The target of data set [5] is T1, NHE-1. The data set is described as follows: NHE-1 inhibition assay on rabbit platelets (platelet shape change after acidification with sodium propionate, laser aggregometer). In kind it is cell-based. This is another data set of the same source.

T1 sequence (P23791 whole entry): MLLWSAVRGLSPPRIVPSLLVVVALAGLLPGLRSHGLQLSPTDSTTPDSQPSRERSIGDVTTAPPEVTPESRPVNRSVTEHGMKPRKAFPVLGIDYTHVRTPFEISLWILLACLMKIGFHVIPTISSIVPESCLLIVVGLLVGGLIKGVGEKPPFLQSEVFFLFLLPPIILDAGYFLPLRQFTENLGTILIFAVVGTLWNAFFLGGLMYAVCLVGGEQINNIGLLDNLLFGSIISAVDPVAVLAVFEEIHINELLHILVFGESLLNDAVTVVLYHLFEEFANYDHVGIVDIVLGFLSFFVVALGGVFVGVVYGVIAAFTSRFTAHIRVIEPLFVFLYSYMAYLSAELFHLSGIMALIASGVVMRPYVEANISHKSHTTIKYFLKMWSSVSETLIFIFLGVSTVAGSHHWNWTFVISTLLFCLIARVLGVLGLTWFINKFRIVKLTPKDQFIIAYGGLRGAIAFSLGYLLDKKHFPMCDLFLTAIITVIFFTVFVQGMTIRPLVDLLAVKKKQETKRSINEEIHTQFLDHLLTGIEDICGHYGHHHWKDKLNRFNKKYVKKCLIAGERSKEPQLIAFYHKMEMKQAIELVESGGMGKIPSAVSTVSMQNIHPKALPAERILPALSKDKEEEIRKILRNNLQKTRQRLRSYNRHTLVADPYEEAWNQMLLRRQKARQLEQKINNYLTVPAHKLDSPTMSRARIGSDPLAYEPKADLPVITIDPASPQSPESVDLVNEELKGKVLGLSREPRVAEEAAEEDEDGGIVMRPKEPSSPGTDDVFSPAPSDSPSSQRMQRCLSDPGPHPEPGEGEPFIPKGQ

One may read the inhibition as how much of the control response was suppressed. Usually CC50 stands for the concentration that lowers cell viability or growth by half. Read a high CC50 as lower toxicity to the cells. As usually defined, the IC50 is the concentration needed to halve the response being measured. Low readings indicate inhibition by little substance, high ones a need for much substance. As for `Cn1c(=O)n(Cc2nnc(N)[nH]2)c(=O)c2ccccc21` [Compound 3e, 3-[(5-Amino-4H-1,2,4-triazol-3-yl)methyl]-1-methylquinazoline-2,4(1H,3H)-dione], at NHE-1 [1] (10 nM, rabbit platelet-rich plasma, decimal commas, read-out: NHE-1 inhibition at 10 nM, m ± SD, n = 6 (%)), the inhibition at 0.01 µM was found to be 57.8%. Besides, on NHE-1 [1] (compared with reference drugs), the “NHE-1 inhibitory activity (in words)” value is “more potent and comparable to zoniporide”. Moreover, the “inhibition of the synthesis of nitric oxide” value in data set [2] is “statistically significantly inhibit”. Moreover, in data set [3], the CC50 at 24 h turned out to be 138 µM. Besides, the “effect on cell viability” value in data set [4] was “absence of a statistically significant effect on cell viability”. Moreover, in the data set on intraocular pressure (compared with zoniporide and timolol), the IOP-lowering effect size result is recorded as “negligible”. Further, in the data set on intraocular pressure (one drop (50 μl) of 0.4% solution instilled), the IOP-lowering activity entry was “statistically significant activity”. In addition, in the data set with ICR mice, the antidepressant activity entry is recorded as “antidepressant activity similar to amiloride; also recorded: antidepressant activity comparable with amiloride”. Further, the IC50 against NHE-1 [5] came to 0.0058 µM.
